Broadly, the IC50 is the concentration needed to halve the response being measured.

Experimental findings from ChEMBL document CHEMBL1126610, “Amidinium cation as a mimic of allylic carbocation: synthesis and squalene synthetase inhibitory activity of an amidinium analog of a carbocation intermediate” (J Med Chem, 1993) are described below.

SMILES strings stand for the structures.

In assay [1] the target is T1, Squalene synthase (Rattus norvegicus, UniProt Q02769).
T1 sequence (Q02769 whole entry): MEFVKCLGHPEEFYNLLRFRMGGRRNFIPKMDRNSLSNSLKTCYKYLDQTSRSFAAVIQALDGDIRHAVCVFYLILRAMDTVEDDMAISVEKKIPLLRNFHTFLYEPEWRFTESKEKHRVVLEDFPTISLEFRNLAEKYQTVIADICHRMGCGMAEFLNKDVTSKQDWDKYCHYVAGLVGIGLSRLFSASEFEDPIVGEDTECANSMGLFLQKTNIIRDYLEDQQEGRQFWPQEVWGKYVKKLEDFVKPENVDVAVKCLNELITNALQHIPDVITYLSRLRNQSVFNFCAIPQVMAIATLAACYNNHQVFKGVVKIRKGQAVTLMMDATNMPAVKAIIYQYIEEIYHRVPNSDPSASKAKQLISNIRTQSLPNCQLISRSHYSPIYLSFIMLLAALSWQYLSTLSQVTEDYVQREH
In words: Inhibitory activity against squalene synthetase in the presence of inorganic pyrophosphate in rat liver microsomal assay. Format: microsomes.

The target of assay [2] is T1, Squalene synthase. In words: Inhibitory activity against squalene synthetase in rat liver microsomal assay. Format: microsomes.

For `CC(C)=CCC/C(C)=C/CC/C(C)=C/C/N=C/N(C)CC/C=C(\C)CCC=C(C)C`, the IC50 was 0.1 µM in assay [1] and 6.9 µM in assay [2].
